Reference: paper PMC12257073 (Cancer Research Communications, 2025)
Like-named read-outs stand apart in the source and are kept apart here.

Assay: Plasma pharmacokinetics of TP-0903 and metabolites (LC-MS/MS, noncompartmental analysis)
Assay type: in vivo, human
Conditions: for Pre-treatment trough / Cmax / Tmax / AUC(0-t) / concentration at 24 h: median (range); for Cmax / Tmax / AUC(0-t) / concentration at 24 h: human, plasma, oral; for AUC(0-t): read-out: AUC0-24h; for concentration at 24 h: read-out: C24h trough
Method: On days 1 and 10 of cycle 1, plasma samples were collected for PK analysis from a total of 25 patients. In the phase 1b study portion of the study, plasma was collected before administration of TP-0903 on day 10 and at 0.5, 1, 2, 4, 8, and 24 hours after administration of TP-0903 on days 1 and 10. In the phase 2 portion of the study, plasma was collected at 2, 4, and 24 hours after drug administration. A validated ultrahigh-performance LC-MS/MS method was developed and used to quantify TP-0903 and its four major metabolites (M2, M3, M4, and M6) in plasma.
TP-0903 and its metabolites M2, M3, M4, and M6 were quantified in plasma using solid phase extraction and LC-MS/MS in the Ohio State University Comprehensive Cancer Center Pharmacoanalytical Shared Resource. See Supplementary Methods for details.
Sample preparation comprised 200 µL of K2EDTA plasma sample combined with 5 µL of 150 ng/mL internal standard mixture (TP-0903-d8 (NSN23293), M2-d8 (NSN23290), M3-d8 (NSN23292), M4-d8 (NSN23291), and M6-d8 (NSN23296)), 50 µL deionized (DI) water, and 50 µL of methanol in the wells of a 2-mL 96-well plate. Reference standards for TP-0903 (ditartrate salt), metabolites, and internal standards were obtained from Sumitomo Pharma America, Inc. (formerly Sumitomo Pharma Oncology, Inc.). Sample preparation was followed by shaking at 500 rpm for 5 minutes at room temperature and the addition of 1 mL of 0.1M sodium carbonate (791768-500G). After centrifugation at 3095 rcf for 10 minutes, 1 mL of supernatant was loaded onto a conditioned 30 mg HLB SPE plate (conditioning included 1 mL methanol flow through followed by 1 mL water flow through). After samples were loaded and passed through the SPE plate using a vacuum, the plate was washed with 1 mL DI water. Once the water passed through, analyte elution was done by loading 1 mL 2% formic acid in methanol, followed by drying with N2 gas heated to 40 °C. Once dried, they were resuspended with 100 µL reconstitution solution (22% acetonitrile, 22% methanol, 56% DI water, 0.5 mM ammonium acetate, and 0.2% formic acid). The chromatographic method utilized a gradient elution with mobile phase A (MPA; 15% acetonitrile, 15% methanol, 70% DI water, 0.5 mM ammonium acetate, and 0.2% formic acid) and mobile phase B (MPB; 45% acetonitrile, 45% methanol, 10% DI water, 0.5 mM ammonium acetate (09689-100G), and 0.2% formic acid (F0441-32)). The flow rate begins at 0.4 mL/min with 25% MPB, at 2.5 min the flow rate increased to 0.6 mL/min, at 5.5 minutes the %MPB increased to 100%, at 7.01 min the flow rate and %MPB decreased to 0.4 mL/min and 25%, respectively, until the end of the run. This method was run using an ACE Excel SuperC18 (3.0 x 75 mm, 5 µm, 90Å) column (EXL-1211-7503) with a ThermoFisher Scientific Vanquish™ – ThermoFisher Scientific (SCR_025713) TSQ Altis LC-MS/MS system (TSQ02-10002). The analytes and internal standards were evaluated in positive mode with the transitions monitored including M2 488.12->402.125, M2-d8 496.25->402.095, M3 502.2->402.113, M3-d8 510.2->402.113, M4 502.138->416.125, M4-d8 510.188->416.125, M6 518.112->402, M6-d8 526.2->402.113, and TP-0903 516.2->416.125, TP-0903-d8 524.237->416.125. […] Three quality control samples (QC Low, QC Medium, and QC High) were monitored during sample analyses to ensure the accuracy of assay quantitation. Additionally, a validation was performed that included the evaluation of selectivity, matrix effects, sensitivity, carry-over, freeze-thaw stability, processed sample stability, recovery, and dilution integrity (20X and 10X). Intra- and inter- day accuracy and precision of the calibrators and quality control samples, which also included the LLOQ for each analyte, was evaluated over 3 days. The quality control samples concentrations were continually monitored by statistical analysis of runs using Westgard rules (13s, 22s, R4s, and 10x) and adherence to FDA guidance of being within 15% except at the LLOQ of being within 20%. […]

[1] = TP-0903 dose 25mg, Day 10 of course 1, plasma
[2] = TP-0903 dose 37 mg, Day 10 of course 1, plasma
[3] = 25 mg, TP-0903 dose 25mg, Day 1 of course 1, plasma
[4] = 25 mg, TP-0903 dose 25mg, Day 10 of course 1, plasma
[5] = 37 mg, TP-0903 dose 37 mg, Day 1 of course 1, plasma
[6] = 37 mg, TP-0903 dose 37 mg, Day 10 of course 1, plasma

CN1CCN(Cc2ccc(Nc3ncc(Cl)c(Nc4ccccc4S(=O)(=O)N(C)C)n3)cc2)CC1.O=C(O)C(O)C(O)C(=O)O.O=C(O)C(O)C(O)C(=O)O [TP-0903, 2-(5-chloro-2-(4-((4-methylpiperazin-1-yl)methyl)phenylamino)pyrimidin-4-yl)amino-N,N-dimethylbenzene-1-sulfonamide di-tartrate salt]
Steady-state TP-0903 plasma exposure (Css Min on Day 10), responders vs non-responders (Supplementary Fig. S3A): no significant difference | Decrease in absolute neutrophil count or platelets in patients with steady-state plasma exposure above the median (Supplementary Fig. S3B, S3C): did not have a greater decrease | Pre-treatment trough [1]: 7.1 (3.3-17) ng/mL | Pre-treatment trough [2]: 5.3 (1.0-21) ng/mL | Drug accumulation ratio (based on the median AUC, day 10 vs day 1, both groups): six | Variation in the steady-state Cmax of parent TP-0903 (both groups (37 mg and 25 mg)): > 25 fold | Cmax [3]: 2.4 ng/mL | Tmax [3]: 2.8 h | AUC(0-t) (25 mg, TP-0903 dose 25mg, Day 1 of course 1, plasma, N=11): 42 ng·h/mL | Cmax [4]: 14 ng/mL | Tmax [4]: 3.5 h | AUC(0-t) (25 mg, TP-0903 dose 25mg, Day 10 of course 1, plasma, N=8): 260 ng·h/mL | Cmax [5]: 3.3 ng/mL | Tmax [5]: 2.1 h | AUC(0-t) (37 mg, TP-0903 dose 37 mg, Day 1 of course 1, plasma, N=10): 36 ng·h/mL | Cmax [6]: 13 ng/mL | Tmax [6]: 3.9 h | AUC(0-t) (37 mg, TP-0903 dose 37 mg, Day 10 of course 1, plasma, N=9): 210 ng·h/mL | concentration at 24 h (TP-0903 dose 25mg, Day 1 of course 1, plasma): 1.9 ng/mL | concentration at 24 h [1]: 8.1 ng/mL | concentration at 24 h (TP-0903 dose 37 mg, Day 1 of course 1, plasma): 0.7 ng/mL | concentration at 24 h [2]: 5.8 ng/mL
